# From patent US12433935B2, “Producing method of mesenchymal stem cell for prevention or treatment of brain neuronal disease including ghrelin treatment and use thereof” (Samsung Life Public Welfare Foundation, priority 2020, dated 2025)
# No end group written: not given here.
# How the values were obtained:
# AgRP gene = assay: AgRP expression in mesenchymal stem cells (WJ-MSC) treated with ghrelin, real-time PCR; type: cell-based, human
# Method: An experiment was conducted to identify the effect on the expression of AgRP (Agouti related peptide) known as a therapeutic agent for brain neuronal disease such as Alzheimer's disease in mesenchymal stem cells when the mesenchymal stem cells were directly treated with ghrelin. WJ-MSCs were thawed in a 175T flask and stabilized for 3 days, and then cultured for 2 days in MEM alpha medium (Gibco, 12571063) to which 10% FBS (Biowest, S1480) and 5 μg/ml gentamicin were added. Thereafter, the WJ-MSCs were seeded, at 0.8×10^6, on a 6-well plate under 10% FBS conditions and incubated for 1 day. After the incubation, the WJ-MSCs were treated with human recombinant ghrelin (Phoenix Pharmaneuticals, 031-30) at concentrations of 0, 10 pM, 1 nM, and 100 nM, respectively, under FBS-free conditions. Cells were collected after 6 and 12 hours, respectively. The collected WJ-MSC was treated with Trizol, and mRNA was extracted therefrom. Then, real-time PCR analysis thereof was performed using human AgRP Primer. The results of treatment of the cells with human recombinant ghrelin at various concentrations for 6 hours are shown in FIG. 2A. The results of treatment of the cells with human recombinant ghrelin at various concentrations for 12 hours are shown in FIG. 2B.
# mouse AgRP gene = assay: AgRP expression in mHYPOE-N46 mouse hypothalamus cell line treated with ghrelin, real-time PCR; type: cell-based; settings: mHYPOE-N46 cells, 0, 10 pM, 1 nM, 100 nM, 6 or 12 hours, primers mAgRP1 and mAgRP2 (FIG. 3A-3D)
# Method: An experiment was conducted to identify the change in AgRP expression level when the mouse hypothalamus cell line was directly treated with the mouse/rat recombinant ghrelin. Specifically, mHYPOE-N46 mouse hypothalamus cell line was thawed in a 175T flask and stabilized for 3 days, and then was incubated for two days in DMEM high glucose medium (Gibco, 11965-092) supplemented with 10% FBS (Biowest, 51480) and penicillin-streptomycin (Gibco, 15140122). Under 10% FBS conditions, the cells are seeded, at 0.8×10^6, in a 6 well plate and incubated for 1 day. After the incubation, the cells were treated with mouse/rat recombinant ghrelin (Phoenix Pharmaneuticals, 031-31) at concentrations of 0, 10 pM, 1 nM, and 100 nM, respectively, in FBS-free conditions. Cells were collected after 6 and 12 hours, respectively. The collected cells were treated with Trizol. mRNA was extracted therefrom. Then, real-time PCR analysis thereof was performed using two mouse AgRP primer pairs. […] After direct treatment of the cells with ghrelin for 6 or 12 hours, the expression of mAgRP was analyzed. In addition, the results of mouse AgRP expression analysis according to ghrelin treatment time using primer mAgRP2 are shown in FIG. 3C and FIG. 3D.
Substance,"expression of AgRP gene (AgRP gene; WJ-MSC, 0, 10 pM, 1 nM, 100 nM, FBS-free, 6 hours and 12 hours (FIG. 2A, 2B))","expression of AgRP (AgRP gene; WJ-MSC, 100 nM concentration, 6 and 12 hours)",expression of mouse AgRP gene (mouse AgRP gene)
"human recombinant ghrelin: human recombinant ghrelin (Phoenix Pharmaneuticals, 031-30); hormone that increases appetite (GSSFLSPEHQRVQQRKESKKPPAKLQPR; ends and bridges not checked; UniProt Q9UBU3 24-51, looked up)",increased based on the treatment concentration,significantly increased,
"mouse ghrelin: mouse/rat recombinant ghrelin (Phoenix Pharmaneuticals, 031-31) (GSSFLSPEHQKAQQRKESKKPPAKLQPR; ends and bridges not checked; UniProt Q9EQX0 24-51, looked up)",,,increased according to the concentration of ghrelin
